± gives the expanded uncertainty stated by the source.
What was measured:
[1] = 298.15 K; 101.33 kPa; Liquid
[2] = refractive index (Na D-line) (dimensionless); xn = mol fraction of the nth substance listed; conditions: 101 kPa, Liquid

CCn1cc[n+](C)c1.O=S(=O)([O-])C(F)(F)F [1-ethyl-3-methylimidazolium trifluoromethanesulfonate]
Conditions	mass density [kg/m3]
[1]	1383.58 ± 4.8

CCn1cc[n+](C)c1.O=S(=O)([O-])C(F)(F)F [1-ethyl-3-methylimidazolium trifluoromethanesulfonate] + CCO
refractive index, [2]
Conditions	288.15 K	298.15 K	308.15 K	318.15 K	328.15 K
x1 = 0.05087	1.37603 ± 0.0012	1.37224 ± 0.0012	1.36847 ± 0.0012	1.3647 ± 0.0012	1.36088 ± 0.0012
x1 = 0.1004	1.38531 ± 0.0012	1.38169 ± 0.0012	1.37828 ± 0.0012	1.37496 ± 0.0012	1.37123 ± 0.0012
x1 = 0.1504	1.39279 ± 0.0012	1.38937 ± 0.0012	1.38635 ± 0.0012	1.38336 ± 0.0012	1.3795 ± 0.0012
x1 = 0.201	1.39891 ± 0.0012	1.39566 ± 0.0012	1.39241 ± 0.0012	1.38923 ± 0.0012	1.38584 ± 0.0012
x1 = 0.2991	1.40822 ± 0.0013	1.40549 ± 0.0013	1.40179 ± 0.0013	1.39872 ± 0.0013	1.39607 ± 0.0013
x1 = 0.3976	1.41506 ± 0.0013	1.41187 ± 0.0013	1.40885 ± 0.0013	1.40581 ± 0.0013	1.40267 ± 0.0013
x1 = 0.4976	1.42051 ± 0.0013	1.41741 ± 0.0013	1.41441 ± 0.0013	1.41137 ± 0.0013	1.40841 ± 0.0013
x1 = 0.5935	1.4247 ± 0.0013	1.42164 ± 0.0013	1.41857 ± 0.0013	1.41564 ± 0.0013	1.41275 ± 0.0013
x1 = 0.6981	1.42832 ± 0.0013	1.42536 ± 0.0013	1.42243 ± 0.0013	1.41956 ± 0.0013	1.41673 ± 0.0013
x1 = 0.7994	1.43116 ± 0.0013	1.42826 ± 0.0013	1.42543 ± 0.0013	1.42262 ± 0.0013	1.41981 ± 0.0013
x1 = 0.8407	1.4322 ± 0.0013	1.42937 ± 0.0013	1.42653 ± 0.0013	1.42372 ± 0.0013	1.42093 ± 0.0013
x1 = 0.892	1.43344 ± 0.0013	1.43061 ± 0.0013	1.42781 ± 0.0013	1.42501 ± 0.0013	1.42222 ± 0.0013
x1 = 0.9444	1.43452 ± 0.0013	1.43172 ± 0.0013	1.42894 ± 0.0013	1.42619 ± 0.0013	1.42346 ± 0.0013
x1 = 1	1.43599 ± 0.0013	1.43322 ± 0.0013	1.4304 ± 0.0013	1.42767 ± 0.0013	1.42494 ± 0.0013

CCn1cc[n+](C)c1.O=S(=O)([O-])C(F)(F)F [1-ethyl-3-methylimidazolium trifluoromethanesulfonate] + CO
refractive index, [2]
Conditions	288.15 K	298.15 K	308.15 K	318.15 K
x1 = 0.04981	1.35401 ± 0.0012	1.35019 ± 0.0012	1.34673 ± 0.0012	1.34425 ± 0.0012
x1 = 0.1006	1.37019 ± 0.0012	1.36654 ± 0.0012	1.3636 ± 0.0012	1.36131 ± 0.0012
x1 = 0.1503	1.38187 ± 0.0012	1.37846 ± 0.0012	1.37522 ± 0.0012	1.37261 ± 0.0012
x1 = 0.2002	1.39131 ± 0.0012	1.38786 ± 0.0012	1.38479 ± 0.0012	1.38175 ± 0.0012
x1 = 0.2516	1.39849 ± 0.0013	1.39527 ± 0.0013	1.39212 ± 0.0013	1.38903 ± 0.0013
x1 = 0.3018	1.40415 ± 0.0013	1.40103 ± 0.0013	1.3983 ± 0.0013	1.39535 ± 0.0013
x1 = 0.3977	1.41297 ± 0.0013	1.40987 ± 0.0013	1.40694 ± 0.0013	1.40394 ± 0.0013
x1 = 0.499	1.41931 ± 0.0013	1.4163 ± 0.0013	1.41325 ± 0.0013	1.41035 ± 0.0013
x1 = 0.5911	1.42382 ± 0.0013	1.42086 ± 0.0013	1.41783 ± 0.0013	1.41502 ± 0.0013
x1 = 0.7059	1.42818 ± 0.0013	1.42529 ± 0.0013	1.42236 ± 0.0013	1.41954 ± 0.0013
x1 = 0.8054	1.43127 ± 0.0013	1.42843 ± 0.0013	1.42553 ± 0.0013	1.42265 ± 0.0013
x1 = 0.8494	1.43236 ± 0.0013	1.42952 ± 0.0013	1.42665 ± 0.0013	1.42387 ± 0.0013
x1 = 0.9013	1.43359 ± 0.0013	1.4308 ± 0.0013	1.42799 ± 0.0013	1.42515 ± 0.0013
x1 = 1	1.43599 ± 0.0013	1.43322 ± 0.0013	1.4304 ± 0.0013	1.42767 ± 0.0013

CCO [ethanol]
Conditions	mass density [kg/m3]
[1]	785.1 ± 0.31

CCO [ethanol] + CCn1cc[n+](C)c1.O=S(=O)([O-])C(F)(F)F
[2], x2 = 0
Conditions	refractive index
288.15 K	1.36358 ± 0.0012
298.15 K	1.3593 ± 0.0012
308.15 K	1.35503 ± 0.0012
318.15 K	1.35073 ± 0.0012
328.15 K	1.3463 ± 0.0012

CO [methanol]
Conditions	mass density [kg/m3]
[1]	786.49 ± 0.31

CO [methanol] + CCn1cc[n+](C)c1.O=S(=O)([O-])C(F)(F)F
[2], x2 = 0
Conditions	refractive index
288.15 K	1.33071 ± 0.0012
298.15 K	1.32653 ± 0.0012
308.15 K	1.32237 ± 0.0012
318.15 K	1.3182 ± 0.0012

CCCO [propan-1-ol]
Conditions	mass density [kg/m3]
[1]	799.56 ± 0.61

CCCO [propan-1-ol] + CCn1cc[n+](C)c1.O=S(=O)([O-])C(F)(F)F
[2], x2 = 0
Conditions	refractive index
288.15 K	1.38732 ± 0.0012
298.15 K	1.38318 ± 0.0012
308.15 K	1.37897 ± 0.0012
318.15 K	1.37471 ± 0.0012
328.15 K	1.37036 ± 0.0012
338.15 K	1.36587 ± 0.0012

CC(C)O [propan-2-ol]
Conditions	mass density [kg/m3]
[1]	780.89 ± 0.31

CC(C)O [propan-2-ol] + CCn1cc[n+](C)c1.O=S(=O)([O-])C(F)(F)F
[2], x2 = 0
Conditions	refractive index
288.15 K	1.37924 ± 0.0012
298.15 K	1.37492 ± 0.0012
308.15 K	1.37048 ± 0.0012
318.15 K	1.36586 ± 0.0012
328.15 K	1.36103 ± 0.0012
338.15 K	1.35599 ± 0.0012

— the NIST ThermoML archive (doi:10.1021/je9006037)
